{"source": "patent US20230028659A1", "about": "“THERAPEUTIC COMPOSITIONS AND METHODS FOR PREVENTION AND TREATMENT OF DIASTOLIC DYSFUNCTION” (AMBETEX PTY LTD, priority 2019, published 2023)", "key": {"Male C57BL6 mice [1]": {"tested_on": "Male C57BL6 mice", "experiment": "Aβ42 and mGluR5 NAM administration study", "format": "in vivo", "details": "Basimglurant 1 mg/kg oral gavage or vehicle plus Aβ42 i.p. once/day; for plasma Aβ42 compared with the ScrAβ42+Veh group: FIG. 9A; for Peak E wave compared with the ScrAβ42+Veh group: FIG. 9B", "description": "Basimglurant (MedChemExpress) was resuspended in 100% DMSO before being diluted in a hydroxypropyl cellulose solution to give a final solution containing 0.25 mg/mL Basimglurant in 10% hydroxypropyl cellulose and 5% DMSO. A vehicle solution containing 10% hydroxypropyl cellulose and 5% DMSO was also made. Aliquots of both drug and vehicle were stored at −80° C. until required. Male C57BL6 mice were obtained from the Animal Resource Centre (Perth, Wash.) at 4 weeks of age and housed with 4 mice per cage on a 12 hr light/dark cycle at a temperature of 22° C. and a constant humidity with a normal rodent diet. At 12 weeks of age, mice were grouped according to body mass and composition, determined by EchoMRI. […] After 4 weeks of drug and peptide administration, cardiac function was assessed by echocardiography as follows. Mice were anaesthetised with inhalation of 1.5% isoflurane anaesthesia and echocardiography was performed using the Phillips HD15 diagnostic ultrasound system with a 15 MHz linear-array transducer by an experienced veterinarian. The velocity of blood flow through the mitral valve was analysed using Doppler mode imaging. […] Doppler imaging was also utilised to measure the velocity of blood flow through the aortic valve. The measurements were then used to calculate the ejection time (LVET), peak aortic flow and heart rate. M-mode imaging of the left ventricle was used to measure the thickness of the inter-ventricular septum (IVS), left ventricular internal diameter (LVID) and left ventricular posterior wall (LVPW) in both diastole (d) and end-systole (s) as well as systolic measures such as ejection fraction and fractional shortening. An estimation of LV mass was calculated from the m-mode imaging by using the formula (1.05[LVIDd+LVPWd+IVSd]^3−[LVIDd]^3) by Troy et al. (1972). The myocardial performance index (MPI), a global index of both diastolic and systolic cardiac function, was calculated using the formula ([IVCT+IVRT]/LVET), by Tei et al. (1995). Mice were humanely killed by cervical dislocation 1 week later. Blood was obtained immediately following by cardiac puncture and the heart, and other tissues were immediately removed. Hearts were washed in ice cold PBS and weighed prior to being snap frozen in liquid nitrogen."}, "[2]": {"tested_on": "mice on HFD (established obesity)", "experiment": "Basimglurant-High Fat Diet (HFD) treatment study", "format": "in vivo", "details": "obese mice", "description": "Basimglurant-High Fat Diet (HFD) treatment study: At 12 weeks of age, mice (n=30) were placed on a HFD with 43% of calories from fat (23.5% by weight; SF04-001 High Fat Rodent Diet Based on D12451, Specialty Feeds, Glen Forrest, Wash.). After 13 weeks of the diet period, echocardiography was performed on all mice to obtain pre-drug treatment measures of cardiac function. Mice were allocated to treatment groups so that measures of cardiac function and morphology were matched as best as possible. Basimglurant (MedChemExpress) was resuspended in 100% DMSO before being diluted in a hydroxypropyl cellulose solution to give a final solution containing 0.25 mg/mL Basimglurant in 10% hydroxypropyl cellulose and 5% DMSO. A vehicle solution containing 10% hydroxypropyl cellulose and 5% DMSO was also made. Aliquots of both drug and vehicle were stored at −80° C. until required. The HFD/Basimglurant group was administered 1 mg/kg of Basimglurant per day by oral gavage, while the HFD/control group received an equivalent volume of vehicle. Echocardiography was then performed following 4 weeks of the treatment period to obtain post-drug treatment measures of cardiac function. Following 5 weeks of the drug administration, mice were humanely killed via cervical dislocation and blood was immediately obtained via cardiac puncture and stored in a heparinised tube. […]"}, "[3]": {"tested_on": "Primary mouse neonatal ventricular cardiomyocytes", "experiment": "Neonatal ventricular cardiomyocyte experiments, antagonist studies (gene expression)", "format": "cell-based", "details": "10 uM, cardiomyocytes exposed to Aβ42, FIG. 6B", "description": "Total mRNA from the tissues was extracted by homogenizing ˜20-30 milligrams of tissue in 1 ml of Trizol followed by incubation at room temperature (RT) for 5 min. 200 μL of chloroform was added to the homogenate, shaken for 15 seconds and incubated for 1 min at RT before centrifuging at 12,000 g for 10 min at 4° C. for extracting the upper aqueous phase. An equal volume (350 μl for cell lysate/450 μL for tissue) of 70% ethanol was added to cell/tissue samples and they were further purified with RNeasy spin columns (the RNeasy®min i Kit, Qiagen). Complementary DNA (cDNA) was synthesised using the SuperScript™ III transcription system (Invitrogen). cDNA was quantified by OliGreen assay (Quant-iT™ OliGreen® ssDNA Assay Kit; Invitrogen). All primers were designed in-house using the Beacon Primer Designer program software and synthesised by Gene Works (Adelaide, Australia). […] Gene expression levels were quantified using the FastStart Universal SYBR Green Master (ROX; Roche Applied-Science) on the MX3005P™ Multiplex Quantitative PCR (QPCR) system (Stratagene). […]\nNeonatal ventricular cardiomyocyte experiments: Primary mouse neonatal ventricular cardiomyocytes were isolated from one day old neonate mice. […] 48 hr after infection, cells were harvested and homogenized in protein lysis buffer, total protein concentration was determined and western blotting was performed, as described above. […]"}, "Male C57BL6 mice [4]": {"tested_on": "Male C57BL6 mice", "experiment": "Aβ40 administration study", "format": "in vivo", "design": "dose or concentration left out as unconfirmed", "details": "i.p. for 5 weeks vs ScrAβ40, FIG. 11A", "description": "Aβ40 administration study: Lyophilised recombinant Aβ40 (Millipore) and scrambled control peptide (ScrAβ40; Millipore) were resuspended in 1% NH4OH and aliquoted at 200 ng/ml in H2O and stored at −80° C. for no longer than 4 weeks. Male C57BL6 mice were obtained from the Animal Resource Centre (Perth, Wash.) at 4 weeks of age and housed with 4 mice per cage on a 12 hr light/dark cycle at a temperature of 22° C. and a constant humidity with a normal rodent diet. At 12 weeks of age, mice were grouped according to body mass and composition, determined by EchoMRI. […] After 4 weeks of peptide administration, cardiac function was assessed by echocardiography as follows. Mice were anaesthetised with inhalation of 1.5% isoflurane anaesthesia and echocardiography was performed using the Phillips HD15 diagnostic ultrasound system with a 15 MHz linear-array transducer by an experienced veterinarian. The velocity of blood flow through the mitral valve was analysed using Doppler mode imaging. […] Doppler imaging was also utilised to measure the velocity of blood flow through the aortic valve. […] An estimation of LV mass was calculated from the m-mode imaging by using the formula (1.05 [LVIDd+LVPWd+IVSd]^3−[LVIDd]^3) by Troy et al. (1972). […] Plasma […] was measured using a high sensitivity ELISA kit (Wako Diagnostics) and plasma that was diluted 1:10 with assay buffer."}, "Male C57BL6 mice [5]": {"tested_on": "Male C57BL6 mice", "experiment": "Aβ42 administration study: GTT with glucose tracers, cardiac metabolism", "format": "in vivo", "method": "Male C57BL6 mice were obtained from the Animal Resource Centre (Perth, Wash.) at 4 weeks of age and housed with 4 mice per cage on a 12 hr light/dark cycle at a temperature of 22° C. and a constant humidity with a normal rodent diet. At 12 weeks of age, mice were grouped according to body mass and composition, determined by EchoMRI. […] An i.p. glucose tolerance test (GTT) was performed on the final treatment day following an overnight fast. Mice were administered 2 g/kg lean mass of glucose including radioactive glucose tracers, prepared as follows. 100 μl of 1 μCi/μ1 glucose analogue, [^3H]-2-deoxyglucose (2-DOG), and 500 μl of 200 μCi/mL U-^14C glucose were evaporated to dryness before redissolving the radioactive tracers in 1 mL of 50% glucose. This produced a 50% glucose solution containing 100 μCi/mL [^3H]-2-DOG and 100 μCi/mL U-^14C glucose. The tail tip of each mouse was cut off and the blood glucose concentration of a blood sample was measured using an AccuCheck II glucometer (Roche). The GTT was initiated via intraperitoneal injection of the radiolabelled glucose solution (2 g/kg body weight, 10 uCi/animal) into the overnight-fasted mice. Further blood samples were taken at 15, 30, 45, 60 and 90 minutes after the injection for the measurement of blood glucose. Blood samples (30 μl) were also taken from the tail tip at each time point and diluted in 100 μl of saline. These samples were then centrifuged and the supernatant collected. 50 μl of the supernatant was diluted in 500 μl of distilled water and then suspended in 4 mL of Ultima Gold XR scintillation fluid (Packard Bioscience). Blood radioactivity was determined at each time point by performing liquid scintillation counting on each solution using the Beckman scintillation counter (LS6000 SC). At the conclusion of the GTT, mice were killed via cervical dislocation. Blood was obtained immediately following by cardiac puncture and the heart, and other tissues were immediately removed. Hearts were washed in ice cold PBS and weighed prior to being snap frozen in liquid nitrogen. The heart (30 mg), epididymal fat pad (30 mg and quadriceps skeletal muscle (30 mg) were homogenised in 1.5 ml of distilled water. The homogenate was centrifuged at 3000 rpm for 10 min at 4° C. 400 μl of the supernatant was diluted into 1.6 mL of distilled water and then suspended in 14 mL of Ultima Gold XR scintillation fluid (Packard Bioscience). The radioactivity of each sample (from both [^3H]-2-DOG6P and [^3H]-2-DOG) was determined by liquid scintillation counting using the Beckman scintillation counter (LS6000 SC).\nThe ^3H radioactivity was used to measure glucose uptake into each tissue.\nTo determine the incorporation of U-^14C glucose into triglyceride and the total triglyceride content in the heart, an extraction of triglyceride was carried out using a chloroform/methanol mixture. Samples of heart (30 mg) were hand-homogenised in 2 mL of chloroform/methanol (2:1) and the homogeniser rinsed in a further 2 mL of chloroform/methanol (2:1), and the washings being added to the original extract in 10 mL tubes. The tubes were tightly capped and mixed on a rotator overnight to maximise extraction of the triglycerides. […] The amount of U-^14C glucose clearance into the lipid fraction was measured by suspending 100 μl of the triglyceride solution in 5 mL of Ultima Gold XR scintillation fluid (Packard Bioscience), followed by scintillation counting using the Beckman scintillation counter (LS6000 SC)."}, "Male C57BL6 mice [6]": {"tested_on": "Male C57BL6 mice", "experiment": "Aβ42 administration study: cardiac function by echocardiography", "format": "in vivo", "description": "After 4 weeks of peptide administration, cardiac function was assessed by echocardiography as follows. Mice were anaesthetised with inhalation of 1.5% isoflurane anaesthesia and echocardiography was performed using the Phillips HD15 diagnostic ultrasound system with a 15 MHz linear-array transducer by an experienced veterinarian. The velocity of blood flow through the mitral valve was analysed using Doppler mode imaging. […] Doppler imaging was also utilised to measure the velocity of blood flow through the aortic valve. The measurements were then used to calculate the ejection time, peak aortic flow and heart rate. M-mode imaging of the left ventricle was used to measure the thickness of the inter-ventricular septum (IVS), left ventricular internal diameter (LVID) and left ventricular posterior wall (LVPW) in both diastole (d) and end-systole (s) as well as systolic measures such as ejection fraction and fractional shortening. An estimation of LV mass was calculated from the m-mode imaging by using the formula (1.05[LVIDd+LVPWd+IVSd]^3−[LVIDd]^3) by Troy et al. (1972). Mice were humanely killed by cervical dislocation 1 week later. Blood was obtained immediately following by cardiac puncture and the heart, and other tissues were immediately removed. Hearts were washed in ice cold PBS and weighed prior to being snap frozen in liquid nitrogen."}, "Male C57BL6 mice [7]": {"tested_on": "Male C57BL6 mice", "experiment": "Aβ42 administration study: heart gene expression and western blotting (NLRP3 inflammasome, PKD)", "format": "in vivo", "details": "chronic administration", "description": "Total mRNA from the tissues was extracted by homogenizing ˜20-30 milligrams of tissue in 1 ml of Trizol followed by incubation at room temperature (RT) for 5 min. 200 μL of chloroform was added to the homogenate, shaken for 15 seconds and incubated for 1 min at RT before centrifuging at 12,000 g for 10 min at 4° C. for extracting the upper aqueous phase. An equal volume (350 μl for cell lysate/450 μL for tissue) of 70% ethanol was added to cell/tissue samples and they were further purified with RNeasy spin columns (the RNeasy®min i Kit, Qiagen). Complementary DNA (cDNA) was synthesised using the SuperScript™ III transcription system (Invitrogen). cDNA was quantified by OliGreen assay (Quant-iT™ OliGreen® ssDNA Assay Kit; Invitrogen). All primers were designed in-house using the Beacon Primer Designer program software and synthesised by Gene Works (Adelaide, Australia). Primer sequence efficiency was tested over a wide concentration range. Gene expression levels were quantified using the FastStart Universal SYBR Green Master (ROX; Roche Applied-Science) on the MX3005P™ Multiplex Quantitative PCR (QPCR) system (Stratagene). Log-transformed CT values were normalised to cDNA concentration to determine relative gene expression levels.\nApproximately 20 mg of ventricle tissue was homogenised in ice-cold lysis buffer (50 mM Tris pH7.5, 1 mM EDTA, 1 mM EGTA, 10% glycerol, 1% triton X-100, 50 mM NaF, 5 mM Na4P2O7, 1 mM Na3VO4, 1 mM DTT, protease inhibitor cocktail) and protein content was determined using the BCA method. […] Blocked membranes were exposed to primary antibodies towards pro-caspase-1, mature caspase 1, total PKD, PKD phosphorylated at ser744 and 748 (Cell Signalling Technology, Danvers, USA) and α-tubulin (Sigma-Aldrich, St. Louis, USA). Membranes were visualised and bands quantified by using the ChemiDoc™ XRS+ with Image Lab™ software."}}}
{"compound": "Cc1nc(C#Cc2ccnc(Cl)c2)c(C)n1-c1ccc(F)cc1", "note": "[Basimglurant]", "values": [{"measurement": "plasma Aβ42 compared with the ScrAβ42+Veh group", "setting": "Male C57BL6 mice [1]", "value": "significantly increased"}, {"measurement": "Peak E wave compared with the ScrAβ42+Veh group", "setting": "Male C57BL6 mice [1]; echocardiography after 4 weeks", "value": "reduced in the Aβ42+Veh group, but not in the Aβ42+Basimglurant groups"}, {"measurement": "myocardial performance index (MPI) compared with the ScrAβ42+Veh group", "setting": "Male C57BL6 mice [1]; echocardiography after 4 weeks, FIG. 9C", "value": "increased in the Aβ42+Veh group, but not in the Aβ42+Basimglurant groups"}, {"measurement": "DT after treatment", "setting": "[2]; 13 weeks HFD then 4 weeks daily 1 mg/kg oral gavage, FIG. 12A", "value": "100 % of baseline levels"}, {"measurement": "plasma Aβ42 levels", "setting": "[2]; daily 1 mg/kg oral gavage, FIG. 12B", "value": "did not have any effect"}]}
{"compound": "O=C1NCCCc2c1oc1ccc(O)cc21", "note": "[CID755673]", "values": [{"measurement": "Aβ42-induced increase in inflammatory gene expression", "setting": "[3]", "value": "prevented"}]}
{"compound": "Aβ40: Lyophilised recombinant Aβ40 (Millipore), amyloid beta peptide", "values": [{"measurement": "plasma Aβ40", "setting": "Male C57BL6 mice [4]", "value": "significantly increased"}]}
{"compound": "Aβ42: Lyophilised recombinant Aβ42 (Millipore), amyloid beta peptide of 42 amino acids", "values": [{"measurement": "whole body glucose tolerance or plasma insulin throughout the GTT", "setting": "Male C57BL6 mice [5]; after five weeks of peptide, vs ScrAβ42", "value": "no difference"}, {"measurement": "glucose incorporation into TAG (14C-glucose labelling)", "setting": "Male C57BL6 mice [5]; heart, FIG. 1C", "value": "greater"}, {"measurement": "total TAG", "setting": "Male C57BL6 mice [5]; heart, FIG. 1D", "value": "increased"}, {"measurement": "cardiac gene expression (inflammation, endoplasmic reticulum stress)", "setting": "Male C57BL6 mice [5]; heart, FIG. 1E", "value": "gene expression changes indicative of cardiac stress responses"}, {"measurement": "increase in plasma Aβ42 compared with administration of ScrAβ42", "setting": "Male C57BL6 mice [5]; i.p. 1 μg/day for five weeks, FIG. 1A", "value": "approximately 3 fold"}, {"measurement": "deceleration time", "setting": "Male C57BL6 mice [6]; echocardiography, vs ScrAβ42, FIG. 2D", "value": "increased"}, {"measurement": "E normalised by isovolumetric relaxation time (IVRT)", "setting": "Male C57BL6 mice [6]; echocardiography, vs ScrAβ42, FIG. 2E", "value": "no significant difference"}, {"measurement": "fractional shortening", "setting": "Male C57BL6 mice [6]; echocardiography, vs ScrAβ42, FIG. 2F", "value": "reduced"}, {"measurement": "ejection fraction", "setting": "Male C57BL6 mice [6]; echocardiography, vs ScrAβ42, FIG. 2G", "value": "reduced"}, {"measurement": "gross heart weight", "setting": "Male C57BL6 mice [6]; five weeks of peptide vs ScrAβ42, FIG. 2A", "value": "no effect"}, {"measurement": "internal dimensions of the left ventricle (LVIDd)", "setting": "Male C57BL6 mice [6]; five weeks of peptide vs ScrAβ42, FIG. 2B", "value": "no effect"}, {"measurement": "phosphorylation of PKD at ser744 and 748", "setting": "Male C57BL6 mice [7]; FIG. 6A", "value": "increased"}, {"measurement": "expression of genes associated with priming of the NLRP3 inflammasome (Nlrp3, Ifna, Il18)", "setting": "Male C57BL6 mice [7]; heart, FIG. 5A", "value": "increased"}, {"measurement": "mature caspase 1", "setting": "Male C57BL6 mice [7]; western blot, FIG. 5B", "value": "increased"}, {"measurement": "pro-caspase 1", "setting": "Male C57BL6 mice [7]; western blot, FIG. 5B", "value": "increased"}, {"measurement": "plasma Aβ42 compared with the ScrAβ42+Veh group", "setting": "Male C57BL6 mice [1]", "value": "elevated"}, {"measurement": "Peak E wave compared with the ScrAβ42+Veh group", "setting": "Male C57BL6 mice [1]; echocardiography after 4 weeks", "value": "reduced"}]}
